Consider 4 molecules from patent US4172148A, “Ruminant feeds containing trichloroethyl esters of essential amino acids” (E. R. Squibb & Sons, Inc., priority 1978, dated 1979).

Test [1] relates to volatile fatty acid concentrations in the in vitro rumen fermentation. In words: in vitro rumen fermentation, volatile fatty acids, alfalfa hay:concentrate 3:1 (Examples 3 and 12). More on the design: species or system sheep. To be noted: 0.2 mg/ml; 6 h, 39° C. The method, then:
(§1) A one gram sample of substrate ground through a 1 mm screen is weighed into 100 ml. lipless beakers equipped with gas-release valves. The substrate consists of alfalfa hay containing approximately 16% protein and a concentrate containing ground corn 60.7%, alfalfa meal 17.5%, molasses 10.0%, soybean meal 5.3%, wheat bran 5.0%, trace mineralized salt 1.0%, limestone 0.5% and Vitamin D 300,000 I.U./ton, mixed in the proportion 3:1. The experimental composition is added to the substrate. 25 ml. of filtered rumen fluid obtained from fasted sheep maintained on feed the same as the above mentioned substrate and 25 ml. of McDougal's buffer solution serve as the inoculum. The buffer solution is as follows:
(§2) The fermentation mixture is flushed with carbon dioxide and the vessel is capped with a gas release valve. The fermentation vessel (beaker) is placed in a water bath and incubated at 39° C.±1° for six hours. The sample is mixed every hour by shaking the beaker.
(§3) At the end of the 6-hour fermentation period the sample is strained through 4 layers of cheesecloth into a sample bottle containing 1 ml. saturated solution of mercuric chloride. The sample is frozen immediately until analyzed for the volatile fatty acids (VFA) (mg/100 ml.). Prior to analysis, each sample is acidified with 30% phosphoric acid and then analyzed by gas chromatography using a column containing 5% nonylphenoxypolyoxyethylene ethanol plus 0.5% phosphoric acid on 100-120 mesh Gas Chrom S. The acids determined are acetic, propionic, butyric, isobutyric, valeric and isovaleric acids. Total VFA is considered as the addition of these acids. The ratio of acetic: propionic (A:P) is obtained by dividing the concentration of acetic acid by that of propionic acid.
The effect of various compounds alone on the volatile fatty acid concentrations was determined by the procedure of Example 3. […] A direct comparison between phenylalanine and phenylalanine trichloroethyl ester is provided.

Test [2] shares this test system. In words: in vitro rumen fermentation, volatile fatty acids, high concentrate substrate, alfalfa hay:concentrate 1:3 (Examples 4 and 7). Further details: species or system sheep. To be noted: for Acetic acid / Acetic:propionic / Butyric acid / Propionic acid / Total acids: hay:concentrate 1:3. On the procedure:
as §1, §2, §3
The procedure is described in Example 3. In this example, however, the substrate consisted of alfalfa hay and concentrate in the ratio of 1:3 and inoculum was obtained from sheep fed alfalfa and concentrate in the ratio of 1:3. The concentrate (Fit-N-Fresh) is commercially available from Agway, Inc. and contains grain products, plant protein products, processed grain by-products, cane molasses, minerals, vitamins and a preservative.
The 2,2,2-trichloroethyl ester of glycine was tested in vitro in a manner similar to that described in Example 4.

Test [3] has as its system volatile fatty acid concentrations in fistulated sheep. The experiment in a line: volatile fatty acid concentrations in vivo in fistulated sheep, 227 g concentrate and 680 g alfalfa hay (Examples 5 and 8). An excerpt:
Mature sheep (wethers) fitted with permanent rumen fistulae were used to determine the effect of L-phenylalanine, 2,2,2-trichloroethyl ester on volatile fatty acid concentrations in vivo (3 wethers per treatment). The animals were individually penned and fed 227 g. of concentrate (described in Example 3) and 680 g. of alfalfa hay once daily. The test compound was admixed with the concentrate. The sheep were medicated for 7 days. Samples for analysis were obtained before (Day 0) and after treatment (Day 7) approximately 6 hours after feeding.

Test [4] relates to growing lambs. The experiment in a line: body weight gain and feed efficiency of growing lambs (Examples 9-11). Format: in vivo, lambs (sheep). The following applies: 0.0044% (40 g/ton) in feed. On the procedure: A test was conducted to determine if feeding L-phenylalanine, 2,2,2-trichloroethyl ester to growing lambs was effective in improving growth and feed efficiency. Wether and ewe lambs were divided into groups of 30 lambs each. They were acclimated to their pens for 2 weeks prior to treatment.
The feed supplied to the animals had the following composition
The test compound in an amount of 0.0055% (50 g/ton) was admixed with the above feed composition.
Body weights and feed consumption were recorded at 0, 2, 4 and 6 weeks. Feed efficiencies were calculated.
The test procedure of Example 9 was followed to test the growth effect and feed efficiency of glycine 2,2,2-trichloroethyl ester on growing lambs. The feed composition of Example 9 was used but contained glycine 2,2,2-trichloroethyl ester in an amount of 0.0044% (40 g/ton). There were 44 lambs in the control group receiving the feed composition without additive and 42 lambs receiving the feed composition containing the amino acid ester.
The test procedure of Example 9 was followed to test the growth effect and feed efficiency of L-phenylalanine 2,2,2-trichloroethyl ester on growing lambs. The feed composition of Example 9 was used but contained 0.0088% (80 g/ton) of this amino acid ester. There were 59 lambs in the control group fed the feed without additive and 58 lambs in the group fed the feed composition containing the test compound.

SMILES strings stand for the structures.

Take `N[C@@H](Cc1ccc(Cl)cc1)C(=O)O` (racemic) [p-chlorophenylalanine, reference compound]: in test [1], the Acetic acid is on record as 91 % of control, the “Acetic:propionic” value was 101 % of control, the Butyric acid was 92 % of control and the Propionic acid is 91 % of control. Besides, in test [1], the Total acids is on record as 91 % of control.

As to `Br.NCC(=O)OCC(Cl)(Cl)Cl` [2,2,2-trichloroethyl ester of glycine, aminoacetic acid 2,2,2-trichloroethyl ester, hydrobromide], in test [2] (0.2 mg/ml), the Acetic acid is 79 % of control, the “Acetic:propionic” value is on record as 64 % of control, the Butyric acid is on record as 119 % of control and the Propionic acid was 123 % of control. Also, the Total acids in test [2] (0.2 mg/ml) is 98 % of control. Moreover, in test [2] (0.4 mg/ml), the Acetic acid is reported as 79 % of control, the “Acetic:propionic” value was 64 % of control, the Butyric acid is 119 % of control and the Propionic acid is 123 % of control. Besides, the Total acids in test [2] (0.4 mg/ml) is given as 98 % of control. For the same molecule, in test [2] (high concentrate substrate), the “effect on acetic:propionic ratio (in words)” value is “decreasing the acetic:propionic ratio” and the “effect on propionic acid concentration (in words)” value is “effective in increasing propionic acid concentration”. In test [3] (Example 8, 500 mg/head/day, treatment, pre-treatment 3.36, control treatment 3.38), the “Acetic:propionic ratio” value stood at 2.86. Also, the “Other acids (%)” value in test [3] (Example 8, 500 mg/head/day, treatment, pre-treatment 6.1, control treatment 4.2) was 6.6%. Moreover, the “Butyric acid (%)” value in test [3] (Example 8, 500 mg/head/day, treatment, pre-treatment 15.1, control treatment 14.6) is recorded as 17.9%. Moreover, in test [3] (Example 8, 500 mg/head/day, treatment, pre-treatment 18.1, control treatment 18.6), the “Propionic acid (%)” value was found to be 19.6%. Moreover, the “Acetic acid (%)” value in test [3] (Example 8, 500 mg/head/day, treatment, pre-treatment 60.8, control treatment 62.7) is on record as 56.0%. Further, the Total acid in test [3] (Example 8, 500 mg/head/day, treatment, pre-treatment 715, control treatment 678) was 731 mg/100 ml. In test [3] (fistulated sheep, 7 days), the “effect on acetic:propionic ratio (in words)” value is recorded as “decreasing the acetic:propionic ratio” and the “effect on proportion of propionic acid (in words)” value was “effective in increasing the proportion of propionic acid”. Besides, the Weight gain in test [4] (0-2 wks, control 2.32) was determined as 2.31 kg. Also, the Weight gain in test [4] (0-4 wks, control 5.09) worked out at 5.13 kg. The same molecule showed a Feed efficiency in test [4] (0-6 wks, control 0.148) of 0.154 gain/feed. The molecule also had a Weight gain in test [4] (0-6 wks, control 7.18) of 7.37 kg.

Take `N[C@@H](Cc1ccccc1)C(=O)O` [L-phenylalanine, reference compound]: in test [1], the Acetic acid is reported as 95 % of control, the “Acetic:propionic” value is reported as 100 % of control, the Butyric acid is 97 % of control and the Propionic acid is recorded as 94 % of control. The Total acids in test [1] is 96 % of control.

Turning to `O=CC(Cl)(Cl)Cl` [choral, reference compound], in test [1], the Acetic acid was 88 % of control, the “Acetic:propionic” value is reported as 80 % of control, the Butyric acid is reported as 110 % of control and the Propionic acid is reported as 110 % of control. Also, in test [1], the Total acids is on record as 96 % of control.
